Source: paper PMC3109722 (Journal of medicinal chemistry, 2011)
“Also recorded” adds a separate entry of the source.

Legend:
[1] = target: T1, L3MBTL3 (Homo sapiens, UniProt Q96JM7); test: AlphaScreen histone peptide competition, L3MBTL3; format: binding; conditions: average of at least two independent trials ± SD
T1 sequence (Q96JM7 225-555 limits assumed): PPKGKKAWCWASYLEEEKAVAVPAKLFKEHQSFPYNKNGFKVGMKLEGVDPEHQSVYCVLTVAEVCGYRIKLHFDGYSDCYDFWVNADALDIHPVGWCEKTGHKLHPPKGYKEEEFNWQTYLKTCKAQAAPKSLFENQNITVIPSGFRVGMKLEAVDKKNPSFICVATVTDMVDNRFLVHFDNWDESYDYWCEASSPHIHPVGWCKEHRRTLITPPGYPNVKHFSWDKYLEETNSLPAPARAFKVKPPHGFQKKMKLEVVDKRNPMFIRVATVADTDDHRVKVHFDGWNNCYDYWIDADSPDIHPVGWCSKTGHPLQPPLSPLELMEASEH

[2] = target: T2, PHF13 (Homo sapiens, UniProt Q86YI8); test: AlphaScreen histone peptide competition, PHF13; format: binding; conditions: average of at least two independent trials ± SD
T2 sequence (Q86YI8 232-280 limits assumed): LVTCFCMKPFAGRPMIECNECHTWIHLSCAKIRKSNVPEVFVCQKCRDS

[3] = target: T1, L3MBTL3; test: ITC binding to L3MBTL3; conditions: data not shown
[4] = target: T3, L3MBTL1 (Homo sapiens, UniProt Q9Y468); test: AlphaScreen histone peptide competition, L3MBTL1; conditions: sulfonamide series; footnote a of Table 2: no binding by AlphaScreen
T3 sequence (Q9Y468 200-522 isoform Q9Y468-1 limits assumed): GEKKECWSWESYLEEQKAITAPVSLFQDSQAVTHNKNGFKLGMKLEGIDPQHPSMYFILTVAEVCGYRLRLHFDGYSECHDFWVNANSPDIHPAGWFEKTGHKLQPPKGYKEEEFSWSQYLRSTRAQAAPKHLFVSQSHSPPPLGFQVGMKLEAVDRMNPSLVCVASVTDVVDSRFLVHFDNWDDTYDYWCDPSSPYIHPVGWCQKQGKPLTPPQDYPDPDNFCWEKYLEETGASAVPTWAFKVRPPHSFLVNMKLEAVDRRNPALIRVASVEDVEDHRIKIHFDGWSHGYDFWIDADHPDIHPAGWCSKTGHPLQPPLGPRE

[5] = target: T3, L3MBTL1; test: ITC binding to wt L3MBTL1; conditions: single experiments, standard deviations from least square curve fitting

Question: With O=C(NCCCCCN1CCCC1)c1cncc(Br)c1 [Compound 7] as the compound, how does the “L3MBTL3 IC50” value [1] read?
Answer: The value was “weak binding”.

Question: What about the “PHF13 IC50” value [2] of the same compound?
Answer: Its value is “weak binding”.

Question: And the “Binding to L3MBTL3 by ITC” value [3]?
Answer: Its value is “Binding was confirmed”.

Question: For O=S(=O)(NCCOCCN1CCCC1)c1cccc(Br)c1 [Compound 8], which “Binding by AlphaScreen” value [4] is on record?
Answer: Its value is “did not show any activity; also recorded: No Binding ^a”.

Question: O=S(=O)(NCCCCCN1CCOCC1)c1cccc(Br)c1 [Compound 9] was tested. Which “Binding by AlphaScreen” value [4] did it give?
Answer: The value was “did not show any activity; also recorded: No Binding ^a”.

Question: C[C@H]1CCN(CCCCCNS(=O)(=O)c2cccc(Br)c2)C1 [Compound 12] was tested. Which “3MBTL1 Kd” value [5] did it give?
Answer: The value was “No Binding Interaction”.
